Data as given in BindingDB's records for patent US20250313563 (The Broad Institute, 2025).
Where “and” joins values, the source holds several entries; their conditions need not be identical. Equal entries are not always repeated.

Columns and labels:
[1] = molecular target: Glycogen synthase kinase-3 alpha (Homo sapiens, UniProt P49840); assay: TR-FRET Assay
Procedure, shortened: (§1)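 Signal is measured as TR-FRET between a terbium anti-phospho-Ser641 antibody and streptavidin-d2, added after an EDTA quench. Compounds are preincubated 30 min in assay buffer.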

[2] = molecular target: Glycogen synthase kinase-3 beta (Homo sapiens, UniProt P49841); assay: TR-FRET Assay
Sequence of Glycogen synthase kinase-3 beta (P49841 whole entry): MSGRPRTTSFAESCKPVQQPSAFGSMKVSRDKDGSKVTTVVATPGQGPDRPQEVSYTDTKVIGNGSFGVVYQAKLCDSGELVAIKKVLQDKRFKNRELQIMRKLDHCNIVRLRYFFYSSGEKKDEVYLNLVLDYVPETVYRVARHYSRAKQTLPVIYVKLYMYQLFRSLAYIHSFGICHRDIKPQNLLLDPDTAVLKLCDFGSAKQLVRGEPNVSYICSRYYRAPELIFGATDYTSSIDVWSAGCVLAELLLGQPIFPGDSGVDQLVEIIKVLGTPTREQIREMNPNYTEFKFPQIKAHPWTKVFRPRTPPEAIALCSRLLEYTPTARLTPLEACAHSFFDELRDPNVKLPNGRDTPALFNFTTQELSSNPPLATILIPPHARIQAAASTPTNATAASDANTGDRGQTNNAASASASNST
Procedure, shortened: as §1

Sequence of Glycogen synthase kinase-3 alpha (P49840 whole entry): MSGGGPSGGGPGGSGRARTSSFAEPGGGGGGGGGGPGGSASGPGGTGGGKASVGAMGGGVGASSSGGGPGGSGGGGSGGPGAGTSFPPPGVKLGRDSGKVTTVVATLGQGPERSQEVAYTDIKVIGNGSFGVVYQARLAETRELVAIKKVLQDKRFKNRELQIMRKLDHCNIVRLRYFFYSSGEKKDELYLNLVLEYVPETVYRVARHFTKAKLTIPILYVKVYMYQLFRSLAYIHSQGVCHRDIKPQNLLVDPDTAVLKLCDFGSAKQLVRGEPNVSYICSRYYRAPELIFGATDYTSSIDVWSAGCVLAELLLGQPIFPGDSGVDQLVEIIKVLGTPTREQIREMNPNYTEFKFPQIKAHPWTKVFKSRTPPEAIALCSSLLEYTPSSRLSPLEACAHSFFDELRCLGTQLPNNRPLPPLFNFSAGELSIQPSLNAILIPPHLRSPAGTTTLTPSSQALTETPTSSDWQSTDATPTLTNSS

| SMILES | IC50 [1] | IC50 [2] |
| --- | --- | --- |
| CC[C@]1(c2cccc(-c3ccnn3-c3ccc(F)cc3)c2)C2=CN=NC2NC2=C1C(=O)NC(C)(C)C2 (stereo partly specified) [US20250313563, Compound 949396] | > 5000 nM | > 5000 nM |
| CC1(C)CC(=O)C2=C(C1)NC1=C(CN=N1)[C@]21COC2(CN(C(=O)[C@H]3CC3(F)F)C2)C1 [US20250313563, Compound 948215] | < 100 nM and 100 to 1000 nM | < 100 nM and 100 to 1000 nM |
| CC1(C)CC(=O)C2=C(C1)NC1N=NC(CC(F)(F)F)=C1C21CCc2c(F)cccc21 (stereo unspecified) [US20250313563, Compound 810590] | 100 to 1000 nM | 100 to 1000 nM |
| CC[C@@]1(c2cccc(-c3cnn(C(C)C)c3F)c2)C2=CN=NC2NC2=C1C(=O)NC(C)(C)C2 (stereo partly specified) [US20250313563, Compound 950061] | 100 to 1000 nM | > 5000 nM |
| CCC1(c2cccc(N3CC(C)(C)C3C(C)C)c2)C2=CN=NC2NC2=C1C(=O)CC(C)(C)C2 (stereo unspecified) [US20250313563, Compound 902969] | 100 to 1000 nM | 1000 to 5000 nM |
| C[C@H]1CC[C@@]2(C1)C1=C(N=NC1)NC1=C2C(=O)CC(C)(C)C1 [US20250313563, Compound 883840] | 100 to 1000 nM | 100 to 1000 nM |
| CC1(C)CC(=O)C2=C(C1)NC1=C(CN=N1)[C@@]2(C)c1cc(C(F)(F)F)ccc1F [US20250313563, Compound 816797] | 1000 to 5000 nM | > 5000 nM |
| CC[C@@]1(c2cccc(N(C)C(C)=O)c2)C2=CN=NC2NC2=C1C(=O)CC(C)(C)C2 (stereo partly specified) [US20250313563, Compound 810359] | > 5000 nM | > 5000 nM |
| CC[C@]1(c2cccc(-c3cnn(Cc4ccc(C(F)(F)F)cc4)c3)c2)C2=CN=NC2NC2=C1C(=O)NC(C)(C)C2 (stereo partly specified) [US20250313563, Compound 949511] | > 5000 nM | > 5000 nM |
| CC[C@@H]1C[C@@]2(CCO1)C1=C(N=NC1)NC1=C2C(=O)CC(C)(C)C1 [US20250313563, Compound 907328] | 100 to 1000 nM | 1000 to 5000 nM |
| CC[C@@]1(c2cccc(N3CCCCC3)c2)C2=C(CC(C)(C)CC2=O)NC2N=NC(C)=C21 (stereo partly specified) [US20250313563, Compound 884116] | < 100 nM and 100 to 1000 nM | < 100 nM and 100 to 1000 nM |
| CC[C@]1(c2cccc(C3=C4CC=CC(F)=C4N=CC3)c2)C2=CN=NC2NC2=C1C(=O)NC(C)(C)C2 (stereo partly specified) [US20250313563, Compound 948813] | 1000 to 5000 nM | > 5000 nM |
| CC1(C)CC(=O)C2=C(C1)NC1N=NC(CC(F)(F)F)=C1[C@]21CCc2c(F)cccc21 (stereo partly specified) [US20250313563, Compound 816838] | 100 to 1000 nM | 100 to 1000 nM |
| CC[C@@]1(c2cccc(-c3ccnc(C)c3)c2)C2=C(N=NC2)NC2=C1C(=O)C(C)(C)C2 [US20250313563, Compound 950283] | 1000 to 5000 nM | > 5000 nM |
| CC[C@]1(c2cccc(-c3ccnc(C)c3)c2)C2=CN=NC2NC2=C1C(=O)NC1(CCC1)C2 (stereo partly specified) [US20250313563, Compound 949517] | 1000 to 5000 nM | > 5000 nM |
| C[C@H]1CCC[C@]12C1=CN=NC1NC1=C2C(=O)CC(C)(C)C1 (stereo partly specified) [US20250313563, Compound 874320] | 1000 to 5000 nM | 1000 to 5000 nM |
| CC1(c2ccccc2)C2=C(N=NC2)NC2=C1C(=O)CC1(CCCC1)C2 (stereo unspecified) [US20250313563, Compound 789460] | 100 to 1000 nM | 100 to 1000 nM |
| CC1(C)CC2=C(C(=O)[C@@H]1F)C1(CCOCC1)C1=C(N=NC1)N2 [US20250313563, Compound 883835] | 100 to 1000 nM | 100 to 1000 nM |
| CC[C@]1(c2cccc(-c3cncn3C(C)C)c2)C2=CN=NC2NC2=C1C(=O)CC(C)(C)C2 (stereo partly specified) [US20250313563, Compound 945729] | 100 to 1000 nM | 1000 to 5000 nM |

Further lines, results first:

| IC50 [1] | IC50 [2] | SMILES |
| --- | --- | --- |
| 100 to 1000 nM | 100 to 1000 nM | CC1(C)CC(=O)C2=C(C1)NC1=C(CN=N1)[C@@]21COC2(CN(C(=O)[C@@H]3CC3(F)F)C2)C1 [US20250313563, Compound 948221] |
| < 100 nM | 100 to 1000 nM | CC1(C)CC2=C(C(=O)C1F)[C@]1(CC[C@@H](C(F)(F)F)CC1)C1=CN=NC1N2 (stereo partly specified) [US20250313563, Compound 917134] |
| < 100 nM | 100 to 1000 nM | Cc1ccc(S(=O)(=O)N2CCC3(CC2)C2=C(N=NC2)NC2=C3C(=O)CC(C)(C)C2)cc1 [US20250313563, Compound 947459] |
| < 100 nM | < 100 nM | CC[C@@]1(c2cccc(-c3cn(C)nc3C(C)C)c2)C2=C(CC(C)(C)CC2=O)NC2N=NC(C)=C21 (stereo partly specified) [US20250313563, Compound 913029] |
| < 100 nM | < 100 nM | CC1(C)CC(=O)C2=C(C1)NC1=C(CN=N1)[C@]21COC2(CN(C(=O)C3(F)CCC3)C2)C1 [US20250313563, Compound 947735] |
| < 100 nM | < 100 nM | Cc1cc(C)cc(C(=O)N2CC3(C2)CC2(CO3)C3=C(N=NC3)NC3=C2C(=O)CC(C)(C)C3)c1 (stereo unspecified) [US20250313563, Compound 947296] |
| < 100 nM | < 100 nM | CC[C@@]1(c2cccc(-c3ccncc3C)c2)C2=CN=NC2NC2=C1C(=O)NC(C)(C)C2 (stereo partly specified) [US20250313563, Compound 947574] |
| < 100 nM | < 100 nM | CC1(C)CC(=O)C2=C(C1)NC1N=NC(C(F)(F)F)=C1C21CCc2c(F)cccc21 (stereo unspecified) [US20250313563, Compound 801356] |
| < 100 nM | 100 to 1000 nM | CCC1(c2cccc(N3CC4CCC3CC4)c2)C2=CN=NC2NC2=C1C(=O)CC(C)(C)C2 (stereo unspecified) [US20250313563, Compound 885120] |
| < 100 nM | < 100 nM | CC[C@@]1(c2cccc(-c3ccncc3F)c2)C2=C(CC(C)(C)NC2=O)NC2N=NC(C)=C21 (stereo partly specified) [US20250313563, Compound 947821] |
| < 100 nM | 100 to 1000 nM | C[C@@H]1C[C@]2(CCN1S(C)(=O)=O)C1=CN=NC1NC1=C2C(=O)CC(C)(C)C1 (stereo partly specified) [US20250313563, Compound 918316] |
| < 100 nM | < 100 nM | CC1CC(C(=O)N2CC3(C2)CC2(CO3)C3=C(N=NC3)NC3=C2C(=O)CC(C)(C)C3)C1 (stereo unspecified) [US20250313563, Compound 947266] |
| < 100 nM | 100 to 1000 nM | CC1(C)CC(=O)C2=C(C1)NC1=C(CN=N1)C2(C)c1cc(C(F)(F)F)ccc1F (stereo unspecified) [US20250313563, Compound 810376] |
| < 100 nM | 100 to 1000 nM | CC[C@@]1(c2cccc(-c3ccnc(C(F)F)c3)c2)C2=CN=NC2NC2=C1C(=O)NC(C)(C)C2 (stereo partly specified) [US20250313563, Compound 950561] |
| < 100 nM | 100 to 1000 nM | CC[C@]1(c2cccc(-c3ccnc(C)c3)c2)C2=C(CC3(CCOCC3)NC2=O)NC2N=NC(C)=C21 (stereo partly specified) [US20250313563, Compound 948513] |
| < 100 nM | 100 to 1000 nM | CCc1cccc(C2(CC)C3=C(N=NC3)NC3=C2C(=O)CC(C)(C)C3)c1 (stereo unspecified) [US20250313563, Compound 949083] |
| < 100 nM | < 100 nM | CCC1(c2cccc(N3CCCC3)c2)C2=C(CC(C)(C)CC2=O)NC2N=NC(C)=C21 (stereo unspecified) [US20250313563, Compound 874314] |
| < 100 nM | < 100 nM | COc1ccc(S(=O)(=O)N2CCC3(CC2)C2=C(N=NC2)NC2=C3C(=O)CC(C)(C)C2)cc1F [US20250313563, Compound 947478] |
| < 100 nM | < 100 nM | Cc1ccc(S(=O)(=O)N2CCC3(CC2)C2=C(N=NC2)NC2=C3C(=O)CC(C)(C)C2)cn1 [US20250313563, Compound 947482] |
